Test results published in publication PMC6658524, “Lysosomal degradation of newly formed insulin granules contributes to β cell failure in diabetes” (Nature Communications, 2019).
pIC50: −log10 of the molar value.

Key:
PKD1 = target: T1, PKD1 (Homo sapiens, UniProt Q15139); experiment: biochemical; parameters: Kinase inhibition by mobility shift assay (Caliper)
T1 construct: gene PRKD1

p38δ = target: T2, p38δ (Homo sapiens, UniProt O15264); experiment: biochemical; parameters: Kinase inhibition by mobility shift assay (Caliper)
T2 construct: gene MAPK13

p70S6K = target: T3, p70S6K (Homo sapiens, UniProt P23443); experiment: 60-kinase selectivity panel, % inhibition at […]; type: biochemical
T3 construct: gene RPS6KB1

DDR2(h) = DDR2(h) (Homo sapiens, UniProt Q16832); experiment: biochemical; parameters: Eurofins KinaseProfiler panel of 60 kinases, per cent inhibition
Sequence of DDR2(h) (Q16832 whole entry): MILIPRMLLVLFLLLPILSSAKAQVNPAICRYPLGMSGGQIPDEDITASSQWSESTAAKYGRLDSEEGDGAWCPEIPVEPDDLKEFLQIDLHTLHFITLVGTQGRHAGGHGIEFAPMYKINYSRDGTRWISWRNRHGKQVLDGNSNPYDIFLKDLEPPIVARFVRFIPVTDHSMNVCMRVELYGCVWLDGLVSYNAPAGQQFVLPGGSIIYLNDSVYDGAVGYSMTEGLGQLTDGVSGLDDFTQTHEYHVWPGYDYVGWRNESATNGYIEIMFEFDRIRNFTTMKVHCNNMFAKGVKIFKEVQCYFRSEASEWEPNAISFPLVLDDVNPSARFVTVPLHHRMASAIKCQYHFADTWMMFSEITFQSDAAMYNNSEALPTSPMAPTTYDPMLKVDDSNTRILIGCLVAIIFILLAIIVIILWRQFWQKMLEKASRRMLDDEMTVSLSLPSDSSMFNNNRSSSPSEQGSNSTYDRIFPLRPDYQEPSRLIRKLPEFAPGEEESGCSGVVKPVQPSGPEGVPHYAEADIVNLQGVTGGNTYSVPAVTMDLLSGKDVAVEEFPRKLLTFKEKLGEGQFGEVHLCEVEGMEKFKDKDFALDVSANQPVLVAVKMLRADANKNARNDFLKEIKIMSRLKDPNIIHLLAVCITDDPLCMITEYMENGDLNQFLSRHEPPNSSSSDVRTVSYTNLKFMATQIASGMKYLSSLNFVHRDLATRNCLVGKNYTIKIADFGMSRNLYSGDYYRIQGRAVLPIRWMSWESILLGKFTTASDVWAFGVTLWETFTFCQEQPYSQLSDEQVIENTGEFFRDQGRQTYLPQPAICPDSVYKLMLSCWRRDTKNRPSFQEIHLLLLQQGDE
Description: (§1) A more detailed account of the discovery, chemistry and biochemical properties of this novel class of selective p38δ inhibitors will be given elsewhere.

PKCβII(h) = target: T4, PKCβII(h) (Homo sapiens, UniProt P05771); experiment: biochemical; parameters: Eurofins KinaseProfiler panel of 60 kinases, per cent inhibition
T4 construct: gene PRKCB; isoform beta II
Description: as §1

CLK2(h) = CLK2(h) (Homo sapiens, UniProt P49760); experiment: biochemical; parameters: Eurofins KinaseProfiler panel of 60 kinases, per cent inhibition
Description: as §1

PKA(h) = target: T5, PKA(h) (Homo sapiens, UniProt P17612); experiment: biochemical; parameters: Eurofins KinaseProfiler panel of 60 kinases, per cent inhibition
T5 construct: gene PRKACA
Description: as §1

GSK3β(h) = target: T6, GSK3β(h) (Homo sapiens, UniProt P49841); experiment: biochemical; parameters: Eurofins KinaseProfiler panel of 60 kinases, per cent inhibition
T6 construct: gene GSK3B
Description: as §1

ALK(h) = ALK(h) (Homo sapiens, UniProt Q9UM73); experiment: biochemical; parameters: Eurofins KinaseProfiler panel of 60 kinases, per cent inhibition
Description: as §1

MELK(h) = MELK(h) (Homo sapiens, UniProt Q14680); experiment: biochemical; parameters: Eurofins KinaseProfiler panel of 60 kinases, per cent inhibition
Description: as §1

CDK9/cyclin T1(h) = CDK9/cyclin T1(h) (Homo sapiens, UniProt P50750); experiment: biochemical; parameters: Eurofins KinaseProfiler panel of 60 kinases, per cent inhibition
Description: as §1

EphA3(h) = EphA3(h) (Homo sapiens, UniProt P29320); experiment: biochemical; parameters: Eurofins KinaseProfiler panel of 60 kinases, per cent inhibition
Sequence of EphA3(h) (P29320 whole entry): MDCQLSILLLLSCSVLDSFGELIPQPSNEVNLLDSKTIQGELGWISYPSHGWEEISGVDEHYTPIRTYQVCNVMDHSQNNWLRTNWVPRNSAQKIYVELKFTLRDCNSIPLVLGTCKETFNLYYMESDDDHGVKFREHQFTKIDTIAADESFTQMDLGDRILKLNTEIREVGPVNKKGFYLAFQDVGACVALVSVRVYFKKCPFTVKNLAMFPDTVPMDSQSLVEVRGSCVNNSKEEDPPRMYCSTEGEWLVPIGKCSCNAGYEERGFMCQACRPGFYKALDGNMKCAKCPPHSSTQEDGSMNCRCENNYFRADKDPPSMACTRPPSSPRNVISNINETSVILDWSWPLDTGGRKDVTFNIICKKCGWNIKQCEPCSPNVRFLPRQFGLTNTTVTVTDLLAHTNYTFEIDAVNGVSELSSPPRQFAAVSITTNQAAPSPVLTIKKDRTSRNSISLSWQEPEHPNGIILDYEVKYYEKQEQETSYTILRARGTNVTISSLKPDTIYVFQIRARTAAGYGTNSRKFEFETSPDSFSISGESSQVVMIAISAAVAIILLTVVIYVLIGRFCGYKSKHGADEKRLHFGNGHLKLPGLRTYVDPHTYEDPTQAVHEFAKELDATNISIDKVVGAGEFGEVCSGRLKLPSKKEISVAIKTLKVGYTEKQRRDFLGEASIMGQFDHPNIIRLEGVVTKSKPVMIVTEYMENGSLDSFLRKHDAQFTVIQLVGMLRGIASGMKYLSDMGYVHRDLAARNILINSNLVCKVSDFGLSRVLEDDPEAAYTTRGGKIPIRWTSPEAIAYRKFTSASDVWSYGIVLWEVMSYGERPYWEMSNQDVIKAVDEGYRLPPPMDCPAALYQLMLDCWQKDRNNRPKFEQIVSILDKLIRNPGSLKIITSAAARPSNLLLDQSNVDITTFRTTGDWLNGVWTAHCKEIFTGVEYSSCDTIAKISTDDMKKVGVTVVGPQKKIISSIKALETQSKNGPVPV
Description: as §1

PKBα(h) = target: T7, PKBα(h) (Homo sapiens, UniProt P31749); experiment: biochemical; parameters: Eurofins KinaseProfiler panel of 60 kinases, per cent inhibition
T7 construct: gene AKT1
Description: as §1

Pim-1(h) = target: T8, Pim-1(h) (Homo sapiens, UniProt P11309); experiment: biochemical; parameters: Eurofins KinaseProfiler panel of 60 kinases, per cent inhibition
T8 construct: gene PIM1
Description: as §1

MAPK1(h) = target: T9, MAPK1(h) (Homo sapiens, UniProt P27361); experiment: biochemical; parameters: Eurofins KinaseProfiler panel of 60 kinases, per cent inhibition
T9 construct: gene MAPK3
Description: as §1

cSRC(h) = target: T10, cSRC(h) (Homo sapiens, UniProt P12931); experiment: biochemical; parameters: Eurofins KinaseProfiler panel of 60 kinases, per cent inhibition
T10 construct: gene SRC
Description: as §1

Aurora-B(h) = target: T11, Aurora-B(h) (Homo sapiens, UniProt Q96GD4); experiment: biochemical; parameters: Eurofins KinaseProfiler panel of 60 kinases, per cent inhibition
T11 construct: gene AURKB
T11 sequence (Q96GD4 whole entry): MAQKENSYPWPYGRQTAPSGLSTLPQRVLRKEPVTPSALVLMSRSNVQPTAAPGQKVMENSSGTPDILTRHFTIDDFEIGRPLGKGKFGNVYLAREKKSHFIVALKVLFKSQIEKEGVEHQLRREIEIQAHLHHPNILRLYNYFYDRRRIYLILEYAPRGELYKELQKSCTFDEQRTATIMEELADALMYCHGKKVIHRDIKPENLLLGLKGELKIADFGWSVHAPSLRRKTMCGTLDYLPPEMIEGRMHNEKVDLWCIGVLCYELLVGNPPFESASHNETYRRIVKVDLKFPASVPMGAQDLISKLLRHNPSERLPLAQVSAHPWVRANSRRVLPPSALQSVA
Description: as §1

c-RAF(h) = target: T12, c-RAF(h) (Homo sapiens, UniProt P04049); experiment: biochemical; parameters: Eurofins KinaseProfiler panel of 60 kinases, per cent inhibition
T12 construct: gene RAF1
Description: as §1

PAK4(h) = PAK4(h) (Homo sapiens, UniProt O96013); experiment: biochemical; parameters: Eurofins KinaseProfiler panel of 60 kinases, per cent inhibition
Sequence of PAK4(h) (O96013 whole entry): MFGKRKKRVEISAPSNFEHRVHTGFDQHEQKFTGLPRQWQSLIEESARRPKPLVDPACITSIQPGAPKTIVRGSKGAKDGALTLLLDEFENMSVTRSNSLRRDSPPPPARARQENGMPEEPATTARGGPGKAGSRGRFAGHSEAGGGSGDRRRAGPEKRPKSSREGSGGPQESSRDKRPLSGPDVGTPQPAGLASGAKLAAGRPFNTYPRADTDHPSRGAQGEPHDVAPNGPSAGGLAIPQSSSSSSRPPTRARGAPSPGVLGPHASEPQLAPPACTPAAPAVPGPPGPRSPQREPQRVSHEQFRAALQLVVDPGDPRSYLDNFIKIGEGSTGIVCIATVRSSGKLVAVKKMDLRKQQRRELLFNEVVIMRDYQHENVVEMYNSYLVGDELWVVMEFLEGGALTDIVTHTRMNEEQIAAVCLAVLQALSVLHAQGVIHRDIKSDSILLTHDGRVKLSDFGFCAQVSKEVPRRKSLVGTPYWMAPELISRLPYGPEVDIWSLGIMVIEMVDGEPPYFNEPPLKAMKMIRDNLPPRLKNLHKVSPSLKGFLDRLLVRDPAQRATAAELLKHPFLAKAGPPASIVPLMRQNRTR
Description: as §1

PKCε(h) = target: T13, PKCε(h) (Homo sapiens, UniProt Q02156); experiment: biochemical; parameters: Eurofins KinaseProfiler panel of 60 kinases, per cent inhibition
T13 construct: gene PRKCE
Description: as §1

Lyn(h) = Lyn(h) (Homo sapiens, UniProt P07948); experiment: biochemical; parameters: Eurofins KinaseProfiler panel of 60 kinases, per cent inhibition
Sequence of Lyn(h) (P07948 whole entry): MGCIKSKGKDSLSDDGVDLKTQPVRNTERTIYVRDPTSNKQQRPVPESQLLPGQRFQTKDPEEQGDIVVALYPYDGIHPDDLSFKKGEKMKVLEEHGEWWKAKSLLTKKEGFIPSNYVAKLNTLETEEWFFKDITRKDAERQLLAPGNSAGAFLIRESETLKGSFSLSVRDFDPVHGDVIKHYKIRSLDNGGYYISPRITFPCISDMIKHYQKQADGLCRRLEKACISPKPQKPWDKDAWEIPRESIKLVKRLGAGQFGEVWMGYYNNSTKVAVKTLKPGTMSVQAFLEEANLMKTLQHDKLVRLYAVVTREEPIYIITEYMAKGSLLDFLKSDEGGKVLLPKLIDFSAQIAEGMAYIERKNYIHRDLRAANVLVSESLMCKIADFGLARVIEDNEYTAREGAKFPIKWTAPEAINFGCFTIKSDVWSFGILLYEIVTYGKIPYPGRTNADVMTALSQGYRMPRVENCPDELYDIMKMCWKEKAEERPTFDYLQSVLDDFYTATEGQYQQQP
Description: as §1

Met(h) = Met(h) (Homo sapiens, UniProt P08581); experiment: biochemical; parameters: Eurofins KinaseProfiler panel of 60 kinases, per cent inhibition
Sequence of Met(h) (P08581 whole entry): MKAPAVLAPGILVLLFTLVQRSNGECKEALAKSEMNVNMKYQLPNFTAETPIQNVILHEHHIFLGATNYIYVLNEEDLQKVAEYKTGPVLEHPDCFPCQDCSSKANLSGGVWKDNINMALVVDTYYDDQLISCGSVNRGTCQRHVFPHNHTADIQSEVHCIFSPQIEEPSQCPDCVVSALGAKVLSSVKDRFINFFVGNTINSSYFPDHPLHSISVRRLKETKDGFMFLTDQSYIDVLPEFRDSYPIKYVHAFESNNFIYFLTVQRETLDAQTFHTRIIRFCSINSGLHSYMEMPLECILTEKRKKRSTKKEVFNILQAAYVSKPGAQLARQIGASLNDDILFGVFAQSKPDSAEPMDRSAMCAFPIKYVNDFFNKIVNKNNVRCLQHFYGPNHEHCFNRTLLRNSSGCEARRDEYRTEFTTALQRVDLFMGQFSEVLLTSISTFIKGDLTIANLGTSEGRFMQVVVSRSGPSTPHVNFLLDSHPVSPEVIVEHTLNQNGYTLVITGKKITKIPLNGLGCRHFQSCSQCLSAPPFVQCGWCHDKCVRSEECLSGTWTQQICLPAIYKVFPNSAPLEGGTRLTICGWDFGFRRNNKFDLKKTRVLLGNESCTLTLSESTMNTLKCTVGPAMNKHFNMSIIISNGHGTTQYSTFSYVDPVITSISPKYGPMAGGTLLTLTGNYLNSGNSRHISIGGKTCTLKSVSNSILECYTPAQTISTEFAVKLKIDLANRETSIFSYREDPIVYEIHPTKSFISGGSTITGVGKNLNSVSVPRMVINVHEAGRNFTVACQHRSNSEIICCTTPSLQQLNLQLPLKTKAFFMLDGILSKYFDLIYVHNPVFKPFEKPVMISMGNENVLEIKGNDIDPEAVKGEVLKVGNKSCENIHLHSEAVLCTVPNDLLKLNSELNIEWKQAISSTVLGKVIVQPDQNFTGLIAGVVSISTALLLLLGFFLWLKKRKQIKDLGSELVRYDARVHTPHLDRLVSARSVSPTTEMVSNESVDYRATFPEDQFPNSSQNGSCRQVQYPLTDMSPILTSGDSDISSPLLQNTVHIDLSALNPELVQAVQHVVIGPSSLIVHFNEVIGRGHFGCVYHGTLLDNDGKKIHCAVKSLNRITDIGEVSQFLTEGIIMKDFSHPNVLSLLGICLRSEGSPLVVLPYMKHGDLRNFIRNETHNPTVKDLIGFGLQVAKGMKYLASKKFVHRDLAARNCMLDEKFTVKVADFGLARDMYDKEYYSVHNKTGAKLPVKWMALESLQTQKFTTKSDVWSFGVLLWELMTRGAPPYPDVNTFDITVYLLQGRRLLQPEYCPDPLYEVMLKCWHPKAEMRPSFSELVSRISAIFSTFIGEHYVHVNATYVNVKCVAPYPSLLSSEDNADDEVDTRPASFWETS
Description: as §1

CaMKI(h) = target: T14, CaMKI(h) (Homo sapiens, UniProt Q14012); experiment: biochemical; parameters: Eurofins KinaseProfiler panel of 60 kinases, per cent inhibition
T14 construct: gene CAMK1
T14 sequence (Q14012 whole entry): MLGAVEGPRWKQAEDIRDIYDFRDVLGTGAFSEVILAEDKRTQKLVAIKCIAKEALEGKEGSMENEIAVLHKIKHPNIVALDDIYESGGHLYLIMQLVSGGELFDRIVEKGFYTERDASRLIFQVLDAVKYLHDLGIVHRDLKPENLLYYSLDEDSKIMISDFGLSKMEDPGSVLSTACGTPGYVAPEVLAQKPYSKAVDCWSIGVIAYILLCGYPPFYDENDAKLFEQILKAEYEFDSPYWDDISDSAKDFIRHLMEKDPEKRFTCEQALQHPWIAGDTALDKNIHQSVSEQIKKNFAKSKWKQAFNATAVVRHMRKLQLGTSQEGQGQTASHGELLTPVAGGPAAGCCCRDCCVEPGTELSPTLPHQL
Description: as §1

AMPKα2(h) = target: T15, AMPKα2(h) (Homo sapiens, UniProt P54646); experiment: biochemical; parameters: Eurofins KinaseProfiler panel of 60 kinases, per cent inhibition
T15 construct: gene PRKAA2
Description: as §1

p38γ (SAPK3) = target: T16, p38γ (SAPK3) (Homo sapiens, UniProt P53778); experiment: mobility shift assay (Caliper); confirmed in 60-kinase panel, % inhibition at […]; type: biochemical
T16 construct: gene MAPK12

Q: How did the pIC50 (PKD1) turn out when CCN1CCOc2nc(N3CCOCC3)nc(-c3ccc(NC(=O)OC)cc3)c2C1=O [Compound A] was run?
A: < 4.52

Q: What about the pIC50 (p38δ) of the same compound?
A: 6.42

Q: What about the “% inhibition at 10 μM” value (p70S6K) of the same compound?
A: 59

Q: What about the inhibition at 1 µM (DDR2(h)) of the same compound?
A: 6%

Q: And the inhibition at 10 µM (DDR2(h))?
A: 15%

Q: And the inhibition at 1 µM (PKCβII(h))?
A: 0%

Q: And the inhibition at 10 µM (PKCβII(h))?
A: 1%

Q: And the inhibition at 1 µM (CLK2(h))?
A: -2%

Q: And the inhibition at 10 µM (CLK2(h))?
A: -2%

Q: And the inhibition at 1 µM (PKA(h))?
A: -8%

Q: What about the inhibition at 10 µM (PKA(h)) of the same compound?
A: -22%

Q: What about the inhibition at 1 µM (GSK3β(h)) of the same compound?
A: 1%

Q: What about the inhibition at 10 µM (GSK3β(h)) of the same compound?
A: 12%

Q: What about the inhibition at 1 µM (ALK(h)) of the same compound?
A: 4%

Q: What about the inhibition at 10 µM (ALK(h)) of the same compound?
A: 0%

Q: And the inhibition at 1 µM (MELK(h))?
A: 2%

Q: What about the inhibition at 10 µM (MELK(h)) of the same compound?
A: 9%

Q: What about the inhibition at 1 µM (CDK9/cyclin T1(h)) of the same compound?
A: -16%

Q: What about the inhibition at 10 µM (CDK9/cyclin T1(h)) of the same compound?
A: 3%

Q: What about the inhibition at 1 µM (EphA3(h)) of the same compound?
A: 8%

Q: And the inhibition at 10 µM (EphA3(h))?
A: 12%

Q: And the inhibition at 1 µM (PKBα(h))?
A: 14%

Q: And the inhibition at 10 µM (PKBα(h))?
A: 17%

Q: And the inhibition at 1 µM (Pim-1(h))?
A: -6%

Q: What about the inhibition at 10 µM (Pim-1(h)) of the same compound?
A: -7%

Q: And the inhibition at 1 µM (MAPK1(h))?
A: 0%

Q: What about the inhibition at 10 µM (MAPK1(h)) of the same compound?
A: 5%

Q: And the inhibition at 1 µM (cSRC(h))?
A: -9%

Q: And the inhibition at 10 µM (cSRC(h))?
A: -12%

Q: What about the inhibition at 1 µM (Aurora-B(h)) of the same compound?
A: -24%

Q: What about the inhibition at 10 µM (Aurora-B(h)) of the same compound?
A: -28%

Q: What about the inhibition at 1 µM (c-RAF(h)) of the same compound?
A: -5%

Q: What about the inhibition at 10 µM (c-RAF(h)) of the same compound?
A: 2%

Q: What about the inhibition at 1 µM (PAK4(h)) of the same compound?
A: -2%

Q: What about the inhibition at 10 µM (PAK4(h)) of the same compound?
A: 4%

Q: And the inhibition at 1 µM (PKCε(h))?
A: 8%

Q: What about the inhibition at 10 µM (PKCε(h)) of the same compound?
A: 12%

Q: And the inhibition at 1 µM (Lyn(h))?
A: -2%

Q: What about the inhibition at 10 µM (Lyn(h)) of the same compound?
A: 13%

Q: And the inhibition at 1 µM (Met(h))?
A: -16%

Q: What about the inhibition at 10 µM (Met(h)) of the same compound?
A: -7%

Q: And the inhibition at 1 µM (CaMKI(h))?
A: 5%

Q: And the inhibition at 10 µM (CaMKI(h))?
A: 11%

Q: And the inhibition at 1 µM (AMPKα2(h))?
A: -5%

Q: What about the inhibition at 10 µM (AMPKα2(h)) of the same compound?
A: 5%

Q: And the “% inhibition at 10 μM” value (p38γ (SAPK3))?
A: 64
